In patent US12673039B2, “Methods of inducing autophagy using coumarin derivatives and related compounds” (Buck Institute for Research on Aging, priority 2019, dated 2026) one finds phosphorylated-TAU expression and TFEB protein expression data, which are given here for three molecules.

Test [1] relates to SH-SY5Y-P301L-TAU cells. In words: Phosphorylated-TAU immunoblot in SH-SY5Y-P301L-TAU cells. It counts as cell-based, human. Conditions: SH-SY5Y cells expressing mutant P301L-TAU, 24 hours. The procedure: (§1) FIG. 30, panels A-B: FXR modulation enhances HLH-30 expression in human neuronal SH-SY5Y cell. Panel A) TFEB expression in SH-SY5Y cells was determined by immunoblot against TFEB in protein lysates collected after 24 hours of treatment with FXR agonist GW4064 and DMSO control. Panel B) Phosphorylated-TAU levels in SH-SY5Y-P301L-TAU cells was determined by immunoblot against (Ser202, Thr205) in protein lysates collected after 24 hours of treatment with known FXR antagonist Z-gugglsterone (z-GG), DY268 and DMSO control.
(In general: A western blot detects proteins with antibodies after separation by electrophoresis.)

The subject of test [2] is SH-SY5Y cells. Kind of test: Immunoblot of TFEB, cathepsin-D and SHP-1 in SH-SY5Y cells. It counts as cell-based, human. The note with it: 24 hours. The protocol:
FIG. 23, panels A-H: FXR modulation enhances HLH-30 expression in human neuronal SH-SY5Y cells. Panel A) Effects of AIC106 on human FXR activity was determined in a mammalian one-hybrid based kit assay by quantifying changes in the luciferase activity of FXR ligand (GW4064, GW) induced treatment. [N=3 independent experiments (mean±SD). ****p<0.0001, by one-way ANOVA with Tukey's multiple comparisons test]. Panel B) Protein expression of TFEB, cathepsin-D (CAT-D) and small heterodimer partner-1 (SHP-1) was determined by immunoblot in neuronal SH-SY5Y cells post-24 hours of treatment with AIC106 and DMSO-control. Panel C) AIC106 enhances autophagic flux in neuronal SH-SY5Y cells. Autophagic flux in DMSO-control and AIC106 treated neuronal cells was determined by quantifying levels of autophagosome specific LC3-II protein both in presence and absence of autophagy inhibitor bafliomycin A1 (Baf A, 10 nM). Panel D) Relative fold change in the band intensity of LC3-II protein, normalized to loading control actin. Values are relative to DMSO-control. [N=3 independent experiments (mean±SD). *p<0.05 and ****p<0.0001, by one-way ANOVA with Tukey's multiple comparisons test]. Panel E) Effects of AIC106 treatment for 72 hours on basal TAU and phosphorylated-TAU in differentiated human neuronal SH-SHY5Y and heterozygous TSC1(+/−) mutant SH-SY5Y neuronal cells were quantitated by immunoblotting following total protein extraction. Relative fold change in the band intensity compared to SH-SY5Y control treatment for (panel F) total TAU and (panel G) phosphorylated-TAU, normalized to loading control GAPDH. [N=3 independent experiments (mean±SD). *p<0.05 and **p<0.01, by one-way ANOVA with Sidak's multiple comparisons test]. Panel H) AIC106 treatment improves viability and health of differentiated SH-SY5Y-TSC1(+/−) neuronal cells. Images were taken post-96 hours after treatment of differentiated neuronal cells with AIC106.
as §1

With `COc1cccc(Cn2cc(C(=O)Nc3ccc(C)c(S(=O)(=O)N4CCOCC4)c3)c(-c3ccc(C)cc3)n2)c1` [DY268], the phosphorylated-TAU expression entry in test [1] is “reduced expression of phosphorylated-TAU”. Consider `CC(C)c1onc(-c2c(Cl)cccc2Cl)c1COc1ccc(/C=C/c2cccc(C(=O)O)c2)c(Cl)c1` [GW4064, reference compound], for which the TFEB protein expression result in test [2] was “reduced TFEB expression”.

For `C/C=C1\C(=O)C[C@H]2[C@@H]3CCC4=CC(=O)CC[C@]4(C)[C@H]3CC[C@]12C` [Z-guggulsterone], in test [1], the phosphorylated-TAU expression entry is “reduced expression of phosphorylated-TAU”.
